Results taken from patent US10662156B2, “Guanidine derivative and medical use thereof” (Toray Industries, Inc., priority 2016, dated 2020).
Structures can show the parent of a compound that is named as a salt.

What follows are molecules tested against recombinant GST fusion MALT1 (human MALT1) (Homo sapiens (Human), UniProt Q9UDY8) (assay: Evaluation of inhibition of protease activity of MALT1 (cleavage of fluorescent peptide substrate Ac-LRSR-AMC)). Conditions: substrate Ac-LRSR-AMC 20 μmol/L, 30° C. for 80 minutes.
Assay type: biochemical
Method in brief: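 GST-tagged full-length human MALT1 from E. coli ([…]) was preincubated with compound 30 min at room temperature. Buffer: MES, 150 mM NaCl, 10% sucrose, 0.1% CHAPS, 10 mM DTT, 1 mol/L ammonium citrate. Ac-LRSR-AMC (20 μM final) was then cleaved 80 min at 30 °C; AMC fluorescence (Ex 380/Em 460) gain gave % inhibition versus no-enzyme and DMSO controls.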

recombinant GST fusion MALT1 (human MALT1), sequence (Q9UDY8 whole entry, the tested form may be a part): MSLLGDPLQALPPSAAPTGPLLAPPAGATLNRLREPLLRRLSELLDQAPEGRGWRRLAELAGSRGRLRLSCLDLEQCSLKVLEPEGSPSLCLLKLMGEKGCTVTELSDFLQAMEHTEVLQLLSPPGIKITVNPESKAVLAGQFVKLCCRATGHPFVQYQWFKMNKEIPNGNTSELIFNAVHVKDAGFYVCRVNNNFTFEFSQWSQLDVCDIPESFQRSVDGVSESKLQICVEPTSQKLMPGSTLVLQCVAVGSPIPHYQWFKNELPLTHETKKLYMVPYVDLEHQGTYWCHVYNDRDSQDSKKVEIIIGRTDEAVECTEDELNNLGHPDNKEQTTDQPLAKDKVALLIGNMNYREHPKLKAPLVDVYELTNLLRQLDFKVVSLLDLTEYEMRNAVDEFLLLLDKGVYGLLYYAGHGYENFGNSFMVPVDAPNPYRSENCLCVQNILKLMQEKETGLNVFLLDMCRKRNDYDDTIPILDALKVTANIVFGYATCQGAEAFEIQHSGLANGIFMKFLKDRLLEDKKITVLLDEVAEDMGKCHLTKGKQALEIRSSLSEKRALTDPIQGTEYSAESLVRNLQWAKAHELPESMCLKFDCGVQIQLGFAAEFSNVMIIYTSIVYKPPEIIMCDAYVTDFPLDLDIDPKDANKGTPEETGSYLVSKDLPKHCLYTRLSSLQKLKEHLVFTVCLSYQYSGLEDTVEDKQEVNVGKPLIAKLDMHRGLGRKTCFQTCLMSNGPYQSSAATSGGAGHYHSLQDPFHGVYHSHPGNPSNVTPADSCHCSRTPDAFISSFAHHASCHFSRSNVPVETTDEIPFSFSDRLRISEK

| IC50 [nM] | SMILES |
| --- | --- |
| 778 | COc1ccc(C(=O)/N=C(\N)NCc2cnc(-c3ccc(Cl)cc3)c(-c3ccc(Cl)cc3)c2)cc1 [Compound of Example 69, N-(amino(((5,6-bis(4-chlorophenyl)pyridin-3-yl)methyl)amino)methylene)-4-methoxybenzamide] |
| 169 | N/C(=N\S(=O)(=O)c1ccc(Cl)s1)NCc1cnc(-c2ccc(Cl)cc2)c(-c2ccc(Cl)cc2)c1 [Compound of Example 54, N-(amino(((5,6-bis(4-chlorophenyl)pyridin-3-yl)methyl)amino)methylene)-5-chlorothiophene-2-sulfonamide] |
| 1290 | N/C(=N\S(=O)(=O)c1ccccc1)NCc1cnc(-c2ccc(F)cc2)c(-c2ccc(Cl)cc2)c1 [Compound of Example 8, N-(amino(((5-(4-chlorophenyl)-6-(4-fluorophenyl)pyridin-3-yl)methyl)amino)methylene)benzenesulfonamide] |
| 744 | N/C(=N\C(=O)c1ccccn1)NCc1cnc(-c2ccc(Cl)cc2)c(-c2ccc(Cl)cc2)c1 [Compound of Example 82, N-(amino(((5,6-bis(4-chlorophenyl)pyridin-3-yl)methyl)amino)methylene)picolinamide] |
| 348 | N/C(=N\S(=O)(=O)c1ccccc1)NCc1cnc(-c2ccc(C(F)(F)F)cc2)c(-c2ccc(Cl)cc2)c1 [Compound of Example 11, N-(amino(((5-(4-chlorophenyl)-6-(4-(trifluoromethyl)phenyl)pyridin-3-yl)methyl)amino)methylene)benzenesulfonamide] |
| 817 | N/C(=N\C(=O)c1ccccc1)NCc1cnc(-c2ccc(Cl)cc2)c(-c2ccc(Cl)cc2)c1 [Compound of Example 34, N-(amino(((5,6-bis(4-chlorophenyl)pyridin-3-yl)methyl)amino)methylene)benzamide] |
| 1710 | N/C(=N\S(=O)(=O)c1ccccc1)NCc1cnc(-c2cccc(F)c2)c(-c2ccc(Cl)cc2)c1 [Compound of Example 9, N-(amino(((5-(4-chlorophenyl)-6-(3-fluorophenyl)pyridin-3-yl)methyl)amino)methylene)benzenesulfonamide] |
| 320 | N#Cc1cccc(S(=O)(=O)/N=C(\N)NCc2cnc(-c3ccc(Cl)cc3)c(-c3ccc(Cl)cc3)c2)c1 [Compound of Example 47, N-(amino(((5,6-bis(4-chlorophenyl)pyridin-3-yl)methyl)amino)methylene)-3-cyanobenzenesulfonamide] |
| 333 | N/C(=N\S(=O)(=O)c1cccc(Cl)c1)NCc1cnc(-c2ccc(Cl)cc2)c(-c2ccc(Cl)cc2)c1 [Compound of Example 48, N-(amino(((5,6-bis(4-chlorophenyl)pyridin-3-yl)methyl)amino)methylene)-3-chlorobenzenesulfonamide] |
| 1520 | N#Cc1ccc(-c2cc(CN/C(N)=N/S(=O)(=O)c3ccccc3)cnc2-c2ccc(Cl)cc2)cc1 [Compound of Example 19, N-(amino(((6-(4-chlorophenyl)-5-(4-cyanophenyl)pyridin-3-yl)methyl)amino)methylene)benzenesulfonamide] |
| 24 | COc1ccc(-c2cc(CN/C(N)=N/S(=O)(=O)c3ccccc3)cnc2-c2ccc(Cl)cc2)cc1 [Compound of Example 18, N-(Amino(((6-(4-chlorophenyl)-5-(4-methoxyphenyl)pyridin-3-yl)methyl)amino)methylene)benzenesulfonamide] |
| 2070 | Cc1ccc(-c2ncc(CN/C(N)=N/S(=O)(=O)c3cccs3)cc2-c2ccc(C(F)(F)F)cc2)cc1 [Compound of Example 33, N-(amino(((6-(4-methylphenyl)-5-(4-(trifluoromethyl)phenyl)pyridin-3-yl)methyl)amino)methylene)thiophene-2-sulfonamide Hydrochloride] |
| 100 | N/C(=N\S(=O)(=O)c1cccs1)NCc1cnc(-c2ccc(Cl)cc2)c(-c2ccc(Cl)cc2)c1 [Compound of Example 29, N-(amino(((5,6-bis(4-chlorophenyl)pyridin-3-yl)methyl)amino)methylene)thiophene-2-sulfonamide] |
| 326 | COc1ccccc1S(=O)(=O)/N=C(\N)NCc1cnc(-c2ccc(Cl)cc2)c(-c2ccc(Cl)cc2)c1 [Compound of Example 49, N-(amino(((5,6-bis(4-chlorophenyl)pyridin-3-yl)methyl)amino)methylene)-2-methoxybenzenesulfonamide] |
| 606 | Cc1ccc(-c2cc(CN/C(N)=N/S(=O)(=O)c3ccccc3)cnc2-c2ccc(Cl)cc2)cc1 [Compound of Example 17, N-(amino(((6-(4-chlorophenyl)-5-(4-methylphenyl)pyridin-3-yl)methyl)amino)methylene)benzenesulfonamide] |
| 90 | NN/C(=N\S(=O)(=O)c1ccccc1)NCc1cnc(-c2ccc(Cl)cc2)c(-c2ccc(Cl)cc2)c1 [Compound of Example 38, N-((5,6-bis(4-chlorophenyl)pyridin-3-yl)methyl)-N′-(phenylsulfonyl)hydrazinecarboximidate] |
| 115 | N/C(=N\S(=O)(=O)c1ccsc1)NCc1cnc(-c2ccc(Cl)cc2)c(-c2ccc(Cl)cc2)c1 [Compound of Example 30, N-(amino(((5,6-bis(4-chlorophenyl)pyridin-3-yl)methyl)amino)methylene)thiophene-3-sulfonamide] |
| 1070 | N/C(=N\S(=O)(=O)c1ccccc1)NCc1cnc(-c2ccc(C(F)(F)F)cc2)c(-c2ccccc2)c1 [Compound of Example 93, N-(amino(((5-phenyl-6-(4-(trifluoromethyl)phenyl)pyridin-3-yl)methyl)amino)methylene)benzenesulfonamide] |
| 570 | N/C(=N\C(=O)c1ccsc1)NCc1cnc(-c2ccc(Cl)cc2)c(-c2ccc(Cl)cc2)c1 [Compound of Example 68, N-(amino(((5,6-bis(4-chlorophenyl)pyridin-3-yl)methyl)amino)methylene)thiophene-3-carboxamide] |
| 140 | COc1ccc(-c2cc(CN/C(N)=N/S(=O)(=O)c3ccccc3)cnc2-c2ccc(C)cc2)cc1 [Compound of Example 24, N-(amino(((5-(4-methoxyphenyl)-6-(4-methylphenyl)pyridin-3-yl)methyl)amino)methylene)benzenesulfoamide] |
| 1510 | N/C(=N\C(=O)c1ccc(Cl)cc1)NCc1cnc(-c2ccc(Cl)cc2)c(-c2ccc(Cl)cc2)c1 [Compound of Example 76, N-(amino(((5,6-bis(4-chlorophenyl)pyridin-3-yl)methyl)amino)methylene)-4-chlorobenzamide] |
| 1840 | Cc1ccc(-c2ncc(CN/C(N)=N/S(=O)(=O)c3ccccc3)cc2-c2ccc(C(F)(F)F)cc2)cc1 [Compound of Example 25, N-(amino(((6-(4-methylphenyl)-5-(4-(trifluoromethyl)phenyl)pyridin-3-yl)methyl)amino)methylene)benzenesulfonamide hydrochloride] |
| 156 | N/C(=N\S(=O)(=O)c1ccoc1)NCc1cnc(-c2ccc(Cl)cc2)c(-c2ccc(Cl)cc2)c1 [Compound of Example 32, N-(amino(((5,6-bis(4-chlorophenyl)pyridin-3-yl)methyl)amino)methylene)furan-3-sulfonamide] |
| 183 | N/C(=N\S(=O)(=O)c1cc2ccccc2s1)NCc1cnc(-c2ccc(Cl)cc2)c(-c2ccc(Cl)cc2)c1 [Compound of Example 55, N-(amino(((5,6-bis(4-chlorophenyl)pyridin-3-yl)methyl)amino)methylene)benzo[b]thiophene-2-sulfonamide] |
| 1030 | N/C(=N\S(=O)(=O)c1ccccc1)NCc1cnc(-c2ccc(O)cc2)c(-c2ccc(Cl)cc2)c1 [Compound of Example 95, N-(amino(((5-(4-chlorophenyl)-6-(4-hydroxyphenyl)pyridin-3-yl)methyl)amino)methylene)benzenesulfonamide Hydrochloride] |
| 745 | N/C(=N\S(=O)(=O)c1ccccc1)NCc1cnc(-c2ccc(Cl)cc2)c(-c2ccc(OC(F)(F)F)cc2)c1 [Compound of Example 22, N-(amino(((6-(4-chlorophenyl)-5-(4-(trifluoromethoxy)phenyl)pyridin-3-yl)methyl)amino)methylene)benzenesulfonamide] |
| 505 | COc1ccc(-c2ncc(CN/C(N)=N/S(=O)(=O)c3ccccc3)cc2-c2ccc(Cl)cc2)cc1 [Compound of Example 6, N-(amino(((5-(4-chlorophenyl)-6-(4-methoxyphenyl)pyridin-3-yl)methyl)amino)methylene)benzenesulfonamide] |
